From patent US10815238B2, “Antimicrobial compounds and methods of making and using the same” (BIOVERSYS AG, priority 2013, dated 2020)

How the values were obtained:
[1] = system: Eschericia coli (E. coli) strain ATCC25922; assay: Standard microdilution assay, MIC against E. coli ATCC25922; assay type: cell-based; conditions: Escherichia coli; E. coli strain ATCC25922, standard microdilution assay; cutoff 16 micrograms/mL; read-out: MIC E. Coli
In short: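 MIC determined by broth microdilution following CLSI protocols, with reference strains run in parallel for quality control. Activity scored +/− at a cutoff of 16 micrograms/mL.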

[2] = system: Staphylococcus aureus (S. aureus) 11540 strain; assay: Standard microdilution assay, MIC against S. aureus 11540; assay type: cell-based; conditions: S. aureus 11540 strain, standard microdilution assay, cutoff 16 micrograms/mL, read-out: MIC S. aureus
Procedure: The in vitro activity of the compounds of the present invention can be determined. Antimicrobial testing is typically performed to determine the minimum inhibitory concentration (MIC). Minimum inhibitory concentrations (MICs) are determined by the microdilution method in a final volume of 100 μl according to protocols outlined by The Clinical and Laboratory Standards Institute (CLSI). Performance standards for reference strains are assessed within the same experimental design to maintain quality control. See, for example, Clinical Laboratory Standards Institute: Methods for dilution antimicrobial susceptibility tests for bacteria that grow aerobically M7-A8. Approved Standard-Eighth Edition. Wayne, Pa.: CLSI; December 2008; and Clinical Laboratory Standards Institute: Performance Standards for Antimicrobial Susceptibility Testing M100-S20; Approved Standard-Twentieth Edition. Wayne, Pa.: CLSI; June 2010.
The compounds of the present invention were tested for antimicrobial activity. The Compounds 1-582 were run against Eschericia coli (E. coli) strain ATCC25922 and Compounds 320-582 were run against Staphylococcus aureus (S. aureus) 11540 strain using a standard microdilution assay to determine minimum inhibitory concentrations (MICs). […] It will be recognized by one skilled in the art that the compounds can be assessed against other bacterial organisms and that the presentation of data for activity against Eschericia coli and Staphylococcus aureus are illustrative and in no way is intended to limit the scope of the present invention. The compounds of the present invention can be assayed against a range of other microorganisms depending upon the performance activity desired to be gathered. Furthermore, the “+” and “−” representation and the selection of a cutoff value of 16 micrograms/mL is also illustrative and in no way is intended to limit the scope of the present invention.

SMILES | MIC [1] | MIC [2]
C=C[C@H](C[C@H](C)NCc1ccc(-n2cc3cc(-c4cc(CCC[C@H](C)N)cc(OC(F)(F)F)c4F)[nH]c3nc2=O)cc1)NC(=N)N [Compound 339] | < 16 µg/mL | < 16 µg/mL
C[C@H](N)CCCc1cc(Cl)c(F)c(-c2cc3cn(-c4ccc([C@@H]5CCC[C@@H](CCNC=N)N5)cc4)c(=O)nc3[nH]2)c1 [Compound 515] | < 16 µg/mL | < 16 µg/mL
C[C@H](N)CCCc1cc(OC(F)(F)F)c(F)c(-c2cc3cn(-c4ccc([C@H](C)NCC[C@@H](CNC(=O)CN)NC(=N)N)cc4)c(=O)nc3[nH]2)c1 [Compound 423] | < 16 µg/mL | < 16 µg/mL
C[C@@H](CNC(=N)N)CN1CC[C@@H](c2cc3cn(-c4ccc([C@H](C)NCCCNC(=N)N)cc4)c(=O)nc3[nH]2)C1 [Compound 576] | < 16 µg/mL | < 16 µg/mL
N=C(N)NCC[C@@H]1CCC[C@@H](c2ccc(-n3cc4cc(-c5cc(CCC[C@@H](N)CO)cc(Cl)c5F)[nH]c4nc3=O)cc2)N1 [Compound 484] | < 16 µg/mL | < 16 µg/mL
C[C@H](N)CCCc1cc(OC(F)(F)F)c(F)c(-c2cc3cn(-c4ccc(C(N)CNC(=N)N)cc4)c(=O)nc3[nH]2)c1 (stereo partly drawn) [Compound 474] | < 16 µg/mL | < 16 µg/mL
C[C@H](N)CCCc1cc(Cl)c(F)c(-c2cc3cn(-c4ccc([C@@H]5CCC[C@@H](CCc6c[nH]nn6)N5)cc4)c(=O)nc3[nH]2)c1 [Compound 543] | > 16 µg/mL | > 16 µg/mL
C[C@H](N)CCCc1cc(Cl)c(F)c(-c2cc3cn(-c4ccc([C@H](C)NCC[C@@H](CN5CCOCC5)NC(=N)N)cc4)c(=O)nc3[nH]2)c1 [Compound 341] | < 16 µg/mL | < 16 µg/mL
C[C@H](NCCCNC(=N)N)c1ccc(-n2cc3cc(-c4cc(CCC[C@@H](N)COC(=O)Cc5ccccc5)cc(Cl)c4F)[nH]c3nc2=O)cc1 [Compound 331] | < 16 µg/mL | < 16 µg/mL
C[C@H](N)CCCc1cc(OC(F)(F)F)c(F)c(-c2cc3cn(-c4ccc([C@H](N)CCCNC(=N)N)cc4)c(=O)nc3[nH]2)c1 [Compound 457] | < 16 µg/mL | < 16 µg/mL
C[C@H](N)CCCc1cc(Cl)c(F)c(-c2cc3cn(-c4ccc([C@H]5COC[C@@H](c6c[nH]nn6)N5)cc4)c(=O)nc3[nH]2)c1 [Compound 391] | > 16 µg/mL | > 16 µg/mL
C[C@H](N)CCCc1cc(Cl)c(F)c(-c2cc3cn(-c4ccc(CNCC[C@H](CN5CCOCC5)NC(=N)N)cc4)c(=O)nc3[nH]2)c1 [Compound 322] | < 16 µg/mL | < 16 µg/mL
C[C@H](N)CCCc1cc(Cl)c(F)c(-c2cc3cn(-c4ccc(CNC5CC(NC(=N)N)C5)cc4)c(=O)nc3[nH]2)c1 (stereo partly drawn) [Compound 563] | < 16 µg/mL | < 16 µg/mL
C[C@H](NCCCNC(=N)N)c1ccc(-n2cc3cc(-c4cc([C@@H]5CC[C@H](C)N5)cc(Cl)c4F)[nH]c3nc2=O)cc1 [Compound 343] | < 16 µg/mL | < 16 µg/mL
C[C@H](N)CCCc1cc(Cl)c(F)c(-c2cc3cn(-c4ccc([C@@H]5CCC[C@@H](Cc6nnc[nH]6)N5)cc4)c(=O)nc3[nH]2)c1 [Compound 496] | > 16 µg/mL | > 16 µg/mL
C[C@H](N)CCCc1cc(Cl)c(F)c(-c2cc3cn(-c4ccc([C@H](N)CCNC(=N)N)cc4)c(=O)nc3[nH]2)c1 [Compound 442] | < 16 µg/mL | < 16 µg/mL
C[C@H](NCCCNC(=N)N)c1ccc(-n2cc3cc(-c4cc([C@@H]5CC[C@H](CN)O5)cc(Cl)c4F)[nH]c3nc2=O)cc1 [Compound 446] | < 16 µg/mL | < 16 µg/mL
C=C[C@H](CCNC(=N)N)N[C@@H](C)c1ccc(-n2cc3cc(-c4cc(CCC[C@H](C)N)cc(OC(F)(F)F)c4F)[nH]c3nc2=O)cc1 [Compound 383] | < 16 µg/mL | < 16 µg/mL
C[C@H](N)CCCc1cc(Cl)c(F)c(-c2cc3cn(-c4ccc(CN[C@@H](C)C[C@@H](CCO)NC(=N)N)cc4)c(=O)nc3[nH]2)c1 [Compound 359] | < 16 µg/mL | < 16 µg/mL
C[C@H](N)CCCc1cc(OC(F)(F)F)c(F)c(-c2cc3cn(-c4ccc([C@H](N)CCNC(=N)N)cc4)c(=O)nc3[nH]2)c1 [Compound 443] | < 16 µg/mL | < 16 µg/mL
C[C@H](N)CCCc1cc(Cl)c(F)c(-c2cc3cn(-c4ccc(C5=NCCCN5)cc4)c(=O)nc3[nH]2)c1 [Compound 564] | < 16 µg/mL | < 16 µg/mL
